Consider 32 compounds from US9346798B2, “Dihydrobenzoxazine and tetrahydroquinoxaline sodium channel inhibitors” (AMGEN INC., priority 2012, dated 2016).

In general, inhibition refers to the change of the read-out against control, counted positive when it falls. Usually IC50 stands for the concentration that gives 50% inhibition. A higher IC50 goes with a need for much substance.

Nav 1.7, sequence (Q15858 whole entry): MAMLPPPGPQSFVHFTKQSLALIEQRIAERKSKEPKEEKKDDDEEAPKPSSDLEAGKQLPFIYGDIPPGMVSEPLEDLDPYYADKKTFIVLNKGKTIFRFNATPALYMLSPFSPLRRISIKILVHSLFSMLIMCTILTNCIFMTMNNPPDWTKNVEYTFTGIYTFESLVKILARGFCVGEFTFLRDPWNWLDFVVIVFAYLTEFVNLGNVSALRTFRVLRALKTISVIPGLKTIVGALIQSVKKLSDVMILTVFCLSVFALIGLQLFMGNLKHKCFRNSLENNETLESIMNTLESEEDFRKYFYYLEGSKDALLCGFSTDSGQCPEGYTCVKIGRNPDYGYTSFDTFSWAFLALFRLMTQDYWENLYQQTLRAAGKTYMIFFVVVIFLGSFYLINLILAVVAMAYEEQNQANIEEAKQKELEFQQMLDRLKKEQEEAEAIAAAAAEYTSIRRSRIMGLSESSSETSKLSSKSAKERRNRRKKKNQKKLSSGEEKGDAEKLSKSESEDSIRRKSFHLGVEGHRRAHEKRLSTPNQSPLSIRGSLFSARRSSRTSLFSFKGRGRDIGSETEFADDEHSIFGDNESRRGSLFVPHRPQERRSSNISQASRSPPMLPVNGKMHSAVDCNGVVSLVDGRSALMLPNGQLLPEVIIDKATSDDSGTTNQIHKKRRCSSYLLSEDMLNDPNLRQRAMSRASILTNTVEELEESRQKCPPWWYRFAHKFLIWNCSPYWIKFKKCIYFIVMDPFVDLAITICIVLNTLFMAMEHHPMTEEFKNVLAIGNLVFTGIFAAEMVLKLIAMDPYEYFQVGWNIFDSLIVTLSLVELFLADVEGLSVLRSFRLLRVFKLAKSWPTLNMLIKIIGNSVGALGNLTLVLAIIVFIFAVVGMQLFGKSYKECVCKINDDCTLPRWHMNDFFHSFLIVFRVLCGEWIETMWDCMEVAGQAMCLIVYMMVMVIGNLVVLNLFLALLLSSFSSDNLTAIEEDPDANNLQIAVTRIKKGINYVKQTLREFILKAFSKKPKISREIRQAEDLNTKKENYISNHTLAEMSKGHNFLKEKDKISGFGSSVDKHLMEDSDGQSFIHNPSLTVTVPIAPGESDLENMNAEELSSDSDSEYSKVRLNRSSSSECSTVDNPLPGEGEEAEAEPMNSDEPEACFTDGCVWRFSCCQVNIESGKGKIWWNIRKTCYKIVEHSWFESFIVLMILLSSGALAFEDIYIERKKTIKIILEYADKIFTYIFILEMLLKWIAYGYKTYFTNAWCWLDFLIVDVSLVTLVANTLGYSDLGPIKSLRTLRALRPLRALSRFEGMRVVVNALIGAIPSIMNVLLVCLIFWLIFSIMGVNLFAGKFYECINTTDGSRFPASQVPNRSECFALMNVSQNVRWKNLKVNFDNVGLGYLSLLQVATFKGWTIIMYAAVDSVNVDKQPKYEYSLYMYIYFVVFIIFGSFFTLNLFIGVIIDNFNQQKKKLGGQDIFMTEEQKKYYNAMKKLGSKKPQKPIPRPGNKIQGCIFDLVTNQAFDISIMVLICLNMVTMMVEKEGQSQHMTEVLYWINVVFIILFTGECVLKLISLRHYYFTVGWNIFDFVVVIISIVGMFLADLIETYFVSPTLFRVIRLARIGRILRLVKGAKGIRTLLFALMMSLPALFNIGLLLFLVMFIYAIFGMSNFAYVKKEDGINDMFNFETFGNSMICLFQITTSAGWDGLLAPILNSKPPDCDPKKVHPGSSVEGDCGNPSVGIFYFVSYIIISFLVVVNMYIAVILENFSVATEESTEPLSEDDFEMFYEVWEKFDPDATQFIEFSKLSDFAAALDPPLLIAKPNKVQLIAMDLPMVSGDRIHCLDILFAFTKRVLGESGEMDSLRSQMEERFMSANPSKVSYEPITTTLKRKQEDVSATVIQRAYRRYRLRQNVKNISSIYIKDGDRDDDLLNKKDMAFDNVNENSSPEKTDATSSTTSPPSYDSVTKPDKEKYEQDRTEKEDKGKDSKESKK

For the first assay, the target named is Nav 1.7 (Homo sapiens (Human), UniProt Q15858). Nature of the assay: Nav 1.7 in vitro PX assay, PatchXpress whole cell voltage clamp. The settings on record: HEK293; values marked *; 4.9 μM; HEK 293 cells stably transfected with human Nav1.7; read-out: Nav 1.7 PX percent inhibition at 4.9 μM. The assay is classed as cell-based. As to the method:
Nav 1.7 In Vitro PX Assay
HEK 293 cells stably transfected with human Nav1.7 were recorded in whole cell voltage clamp mode with the PatchXpress automated electrophysiology system (Molecular Devices, LLC, Sunnyvale, Calif.). Compound effects were measured on a partially inactivated state of the sodium channel. Cells were clamped to a holding potential yielding 20 to 50% inactivation. To elicit sodium current, channels were activated by pulsing to −10 mV for 20 msec. This voltage protocol was repeated at a rate of 0.1 Hz throughout the experiment. A single concentration of test compound was applied to cells for a duration of 3 minutes. Peak sodium current was measured at the end of the compound addition period to determine percent inhibition. Three to five cells were tested per concentration, and IC50 curves were fitted to percent inhibition as a function of concentration.
Turning to `COCC1CN(c2ccc(Cl)cc2C#N)c2ccc(S(=O)(=O)Nc3nccs3)cc2O1` (centres unmarked) [Example 251, 4-(4-chloro-2-cyanophenyl)-2-(methoxymethyl)-N-(thiazol-2-yl)-3,4-dihydro-2H-benzo[b][1,4]oxazine-7-sulfonamide], the inhibition at 4.9 µM was found to be 27.8%.

In the case of `CC(C)(O)COc1ccccc1N1CCOc2cc(S(=O)(=O)Nc3nccs3)ccc21` [Example 253, 4-(2-(2-hydroxy-2-methylpropoxy)phenyl)-N-(thiazol-2-yl)-3,4-dihydro-2H-benzo[b][1,4]oxazine-7-sulfonamide], the inhibition at 4.9 µM stood at 27%.

The same assay, now with this note: HEK 293 cells stably transfected with human Nav1.7; partially inactivated state (20 to 50% inactivation).
As to `COc1cc(C(F)(F)F)ccc1N1C(=O)C(C)Oc2cc(S(=O)(=O)Nc3nccs3)ccc21` (racemic) [Example 263, (+/−)-4-(2-methoxy-4-(trifluoromethyl)phenyl)-2-methyl-3-oxo-N-(thiazol-2-yl)-3,4-dihydro-2H-benzo[b][1,4]oxazine-7-sulfonamide], the midpoint of inhibition, the IC50, lay at 0.457 µM.

As for `COc1cc(C(F)(F)F)ccc1N1CCOc2cc(S(=O)(=O)Nc3nccs3)c(C#N)cc21` [Example 213, 6-Cyano-4-(2-Methoxy-4-(Trifluoromethyl)Phenyl)-N-(Thiazol-2-Yl)-3,4-Dihydro-2H-Benzo[B][1,4]Oxazine-7-Sulfonamide], the IC50 was determined as 0.455 µM.

With `COc1ccc(C#N)cc1N1CCOc2cc(S(=O)(=O)Nc3nccs3)ccc21` [Example 225, 4-(5-Cyano-2-Methoxyphenyl)-N-(Thiazol-2-Yl)-3,4-Dihydro-2H-Benzo[B][1,4]Oxazine-7-Sulfonamide], inhibition was half-maximal at 0.303 µM (IC50).

Compound `COCCOc1ccccc1N1CCOc2cc(S(=O)(=O)Nc3nccs3)ccc21` [Example 229, 4-(2-(2-Methoxyethoxy)Phenyl)-N-(Thiazol-2-Yl)-3,4-Dihydro-2H-Benzo[B][1,4]Oxazine-7-Sulfonamide] yielded an IC50 of 3.16 µM.

`CS(=O)(=O)c1ccccc1N1CCOc2cc(S(=O)(=O)Nc3nccs3)ccc21` [Example 230, 4-(2-(Methylsulfonyl)Phenyl)-N-(Thiazol-2-Yl)-3,4-Dihydro-2H-Benzo[B][1,4]Oxazine-7-Sulfonamide] came in with an IC50 of 33.6 µM.

The compound `O=S(=O)(Nc1nccs1)c1ccc2c(c1)OCCN2c1ccccc1-c1cncnc1` [Example 231, 4-(2-(Pyrimidin-5-Yl)Phenyl)-N-(Thiazol-2-Yl)-3,4-Dihydro-2H-Benzo[B][1,4]Oxazine-7-Sulfonamide] returned a half-inhibitory concentration (IC50) of 19.8 µM.

`COc1cc(C#N)ccc1N1C(=O)COc2cc(S(=O)(=O)Nc3nccs3)ccc21` [Example 232, 4-(4-Cyano-2-Methoxyphenyl)-3-Oxo-N-(Thiazol-2-Yl)-3,4-Dihydro-2H-Benzo[B][1,4]Oxazine-7-Sulfonamide] displayed an IC50 of 2.01 µM.

Compound `COc1cc(Cl)ccc1N1C(=O)COc2cc(S(=O)(=O)Nc3nccs3)ccc21` [Example 233, 4-(4-Chloro-2-Methoxyphenyl)-3-Oxo-N-(Thiazol-2-Yl)-3,4-Dihydro-2H-Benzo[B][1,4]Oxazine-7-Sulfonamide] returned a 50% inhibitory concentration (IC50) of 0.327 µM.

Regarding `N#Cc1cc(C(F)(F)F)ccc1N1C(=O)COc2cc(S(=O)(=O)Nc3nccs3)ccc21` [Example 234, 4-(2-Cyano-4-(Trifluoromethyl)Phenyl)-3-Oxo-N-(Thiazol-2-Yl)-3,4-Dihydro-2H-Benzo[B][1,4]Oxazine-7-Sulfonamide], the IC50 was 1.45 µM.

In turn, `COc1ccccc1N1C(=O)COc2cc(S(=O)(=O)Nc3nccs3)ccc21` [Example 235, 4-(2-Methoxyphenyl)-3-Oxo-N-(Thiazol-2-Yl)-3,4-Dihydro-2H-Benzo[B][1,4]Oxazine-7-Sulfonamide] registered a concentration for half-maximal inhibition (IC50) of 0.896 µM.

`COc1ccc(C(F)(F)F)cc1N1C(=O)COc2cc(S(=O)(=O)Nc3nccs3)ccc21` [Example 236, 4-(2-Methoxy-5-(Trifluoromethyl)Phenyl)-3-Oxo-N-(Thiazol-2-Yl)-3,4-Dihydro-2H-Benzo[B][1,4]Oxazine-7-Sulfonamide] registered a concentration for half-maximal inhibition (IC50) of 0.513 µM.

The compound `COc1ccccc1N1CCOc2cc(S(=O)(=O)Nc3ncns3)ccc21` [Example 238, 4-(2-Methoxyphenyl)-N-(1,2,4-Thiadiazol-5-Yl)-3,4-Dihydro-2H-Benzo[B][1,4]Oxazine-7-Sulfonamide] returned a half-maximal inhibitory concentration (IC50) of 0.135 µM. Compared with the last compound, the IC50 is about 3.8-fold lower.

Take `O=C1COc2cc(S(=O)(=O)Nc3nccs3)ccc2N1c1ccc(C(F)(F)F)cc1Br` [Example 239, 4-(2-Bromo-4-(Trifluoromethyl)Phenyl)-3-Oxo-N-(Thiazol-2-Yl)-3,4-Dihydro-2H-Benzo[B][1,4]Oxazine-7-Sulfonamide]: the half-maximal inhibitory concentration (IC50) came out at 0.35 µM.

With `O=C1COc2cc(S(=O)(=O)Nc3nccs3)ccc2N1c1ccc(C(F)(F)F)cc1F` [Example 240, 4-(2-Fluoro-4-(Trifluoromethyl)Phenyl)-3-Oxo-N-(Thiazol-2-Yl)-3,4-Dihydro-2H-Benzo[B][1,4]Oxazine-7-Sulfonamide], the concentration for half-maximal inhibition (IC50) is 11.9 µM.

With `O=C1COc2cc(S(=O)(=O)Nc3nccs3)ccc2N1c1ccc(C(F)(F)F)cc1Cl` [Example 241, 4-(2-Chloro-4-(Trifluoromethyl)Phenyl)-3-Oxo-N-(Thiazol-2-Yl)-3,4-Dihydro-2H-Benzo[B][1,4]Oxazine-7-Sulfonamide], the IC50 came out at 0.483 µM.

In turn, `CC(O)c1ccccc1N1C(=O)COc2cc(S(=O)(=O)Nc3nccs3)ccc21` (centres unmarked) [Example 242, 4-(2-(1-Hydroxyethyl)Phenyl)-3-Oxo-N-(Thiazol-2-Yl)-3,4-Dihydro-2H-Benzo[B][1,4]Oxazine-7-Sulfonamide] registered an IC50 of 5.82 µM. This IC50 is about 12-fold higher than that of the compound before.

Take `N#Cc1cc(Cl)ccc1N1CCOc2cc(S(=O)(=O)Nc3ccncn3)ccc21` [Example 243, 4-(4-Chloro-2-Cyanophenyl)-N-(Pyrimidin-4-Yl)-3,4-Dihydro-2H-Benzo[B][1,4]Oxazine-7-Sulfonamide]: the half-maximal inhibitory concentration (IC50) is 1.88 µM.

As for `NC(=O)c1ccccc1N1CCOc2cc(S(=O)(=O)Nc3nccs3)ccc21` [Example 244, 2-(7-(N-(Thiazol-2-Yl)Sulfamoyl)-2H-Benzo[B][1,4]Oxazin-4(3H)-Yl)Benzamide], half-maximal inhibition (IC50) required 5.01 µM.

Compound `COc1cc(F)ccc1N1C(=O)COc2cc(S(=O)(=O)Nc3nccs3)ccc21` [Example 245, 4-(4-Fluoro-2-Methoxyphenyl)-3-Oxo-N-(Thiazol-2-Yl)-3,4-Dihydro-2H-Benzo[B][1,4]Oxazine-7-Sulfonamide] showed an IC50 of 0.615 µM.

On to `COc1ccc(F)cc1N1C(=O)COc2cc(S(=O)(=O)Nc3nccs3)ccc21` [Example 246, 4-(5-Fluoro-2-Methoxyphenyl)-3-Oxo-N-(Thiazol-2-Yl)-3,4-Dihydro-2H-Benzo[B][1,4]Oxazine-7-Sulfonamide], for which 0.54 µM corresponded to half-maximal inhibition (IC50). The IC50 values of the last two compounds are within 1.5-fold of each other.

Take `Cc1cc(C(F)(F)F)ccc1N1C(=O)COc2cc(S(=O)(=O)Nc3nccs3)ccc21` [Example 247, 4-(2-Methyl-4-(Trifluoromethyl)Phenyl)-3-Oxo-N-(Thiazol-2-Yl)-3,4-Dihydro-2H-Benzo[B][1,4]Oxazine-7-Sulfonamide]: the IC50 is 0.403 µM.

`COc1cc(C(F)(F)F)ccc1N1C(=O)COc2cc(S(=O)(=O)Nc3ncns3)ccc21` [Example 248, 4-(2-Methoxy-4-(Trifluoromethyl)Phenyl)-3-Oxo-N-(1,2,4-Thiadiazol-5-Yl)-3,4-Dihydro-2H-Benzo[B][1,4]Oxazine-7-Sulfonamide] came in with an IC50 of 0.175 µM.

Turning to `O=S(=O)(Nc1nccs1)c1ccc2c(c1)OCCN2c1ccccc1C(O)CO` (centres unmarked) [Example 252, 4-(2-(1,2-dihydroxyethyl)phenyl)-N-(thiazol-2-yl)-3,4-dihydro-2H-benzo[b][1,4]oxazine-7-sulfonamide], it took 3.67 µM to reach half-maximal inhibition (IC50).

For `C=C(C)c1ccccc1N1CCOc2cc(S(=O)(=O)Nc3nccs3)ccc21` [Example 254, 4-(2-(prop-1-en-2-yl)phenyl)-N-(thiazol-2-yl)-3,4-dihydro-2H-benzo[b][1,4]oxazine-7-sulfonamide], the midpoint of inhibition, the IC50, lay at 2.42 µM.

In turn, `O=S(=O)(Nc1nccs1)c1ccc2c(c1)OCCN2c1ccccc1-c1ccc(O)nc1` [Example 255, 4-(2-(6-hydroxypyridin-3-yl)phenyl)-N-(thiazol-2-yl)-3,4-dihydro-2H-benzo[b][1,4]oxazine-7-sulfonamide 2,2,2-trifluoroacetate] yielded a half-maximal inhibitory concentration (IC50) of 0.975 µM.

The compound `NC(=O)COc1ccccc1N1CCOc2cc(S(=O)(=O)Nc3nccs3)ccc21` [Example 256, 2-(2-(7-(N-(thiazol-2-yl)sulfamoyl)-2H-benzo[b][1,4]oxazin-4(3H)-yl)phenoxy)acetamide] yielded an IC50 of 2.22 µM.

On to `N#CCOc1ccccc1N1CCOc2cc(S(=O)(=O)Nc3nccs3)ccc21` [Example 257, 4-(2-(cyanomethoxy)phenyl)-N-(thiazol-2-yl)-3,4-dihydro-2H-benzo[b][1,4]oxazine-7-sulfonamide], for which half-maximal inhibition (IC50) required 0.408 µM. Compared with the last compound, the IC50 is about 5.4-fold lower.

As for `CC(C)(O)c1ccccc1N1CCOc2cc(S(=O)(=O)Nc3nccs3)ccc21` [Example 258, 4-(2-(2-hydroxypropan-2-yl)phenyl)-N-(thiazol-2-yl)-3,4-dihydro-2H-benzo[b][1,4]oxazine-7-sulfonamide], the IC50 is 1.31 µM.

Consider `CCc1ccccc1N1CCOc2cc(S(=O)(=O)Nc3nccs3)ccc21` [Example 259, 4-(2-ethylphenyl)-N-(thiazol-2-yl)-3,4-dihydro-2H-benzo[b][1,4]oxazine-7-sulfonamide], for which half-maximal inhibition (IC50) required 1.6 µM.

Consider `O=S(=O)(Nc1nccs1)c1ccc2c(c1)OCCN2c1ccccc1Oc1ccncc1` [Example 260, 4-(2-(pyridin-4-yloxy)phenyl)-N-(thiazol-2-yl)-3,4-dihydro-2H-benzo[b][1,4]oxazine-7-sulfonamide], for which the IC50 came to 2.26 µM.
